{"source": "patent US7973061B2", "about": "“Anaplastic lymphoma kinase modulators and methods of use” (Exelixis, Inc., priority 2004, dated 2011)", "target": "T1, ALK (baculovirus expressed human ALK kinase domain F1098-K1410) (Homo sapiens, UniProt Q9UM73)", "T1 construct": "human ALK kinase domain F1098-K1410; made in house", "T1 sequence (Q9UM73 1098-1410)": "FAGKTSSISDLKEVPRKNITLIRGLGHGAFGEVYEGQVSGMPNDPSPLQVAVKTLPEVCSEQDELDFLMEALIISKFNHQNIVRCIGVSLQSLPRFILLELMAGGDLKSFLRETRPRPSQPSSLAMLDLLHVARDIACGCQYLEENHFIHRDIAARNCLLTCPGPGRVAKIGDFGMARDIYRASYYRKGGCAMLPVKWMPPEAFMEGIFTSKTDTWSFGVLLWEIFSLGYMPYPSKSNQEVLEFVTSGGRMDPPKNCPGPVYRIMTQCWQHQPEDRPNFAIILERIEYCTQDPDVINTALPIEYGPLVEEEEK", "experiment": "biochemical", "details": "1 μM ATP, 4 μM poly-AEKY, 12 nM ALK, 2 hours at ambient temperature; read-out: ALK IC50", "experimental": "Kinase activity and compound inhibition are investigated using one or more of the three assay formats described below. The ATP concentrations for each assay are selected to be close to the Michaelis-Menten constant (KM) for each individual kinase. Dose-response experiments are performed at 10 different inhibitor concentrations in a 384-well plate format. […] Y=Min+(Max−Min)/(1+(X/IC50)^H) Equation (2) Luciferase-Coupled Chemiluminescent Kinase Assay\nALK biochemical activity was assessed using a Luciferase-Coupled Chemiluminescent Kinase assay (LCCA) format in which kinase activity was measured as the percent ATP remaining following the kinase reaction. ATP remaining after the kinase reaction was detected by luciferase-luciferin-coupled chemiluminescence. […] The mixture was incubated at ambient temperature for 2 hours after which 20 μL luciferase-luciferin mix was added and the chemiluminescent signal read using a Wallac Victor^2 reader. […] Consumption of ATP by ALK can be quantified and utilized as a measure of inhibition of ALK activity by compounds described herein. By employing serial dilutions of compounds to be tested, the ability of test compounds to inhibit ALK activity can be determined.", "note": "pIC50: −log10 of the molar value."}
{"compound": "O=C(COc1ccc(OC(F)(F)F)cc1)NCc1cc(C(=O)NCCc2cccc(Cl)c2)no1", "note": "[Entry 299, N-[2-(3-chlorophenyl)ethyl]-5-({[({4-[(trifluoromethyl)oxy]phenyl}oxy)acetyl]amino}methyl)isoxazole-3-carboxamide]", "values": [{"measurement": "pIC50", "result": "< 5.70"}]}
{"compound": "C[C@H](NC(=O)c1csc(CNC(=O)COc2ccc(OC(F)(F)F)cc2)n1)C1CCCCC1", "note": "[Entry 95, N-[(1S)-1-cyclohexylethyl]-2-({[({4-[(trifluoromethyl)oxy]phenyl}oxy)acetyl]amino}methyl)-1,3-thiazole-4-carboxamide]", "values": [{"measurement": "pIC50", "result": "6.30 to 7.30"}]}
{"compound": "O=C(COc1ccc(OC(F)(F)F)cc1)NCc1nc(C(=O)NC(Cc2ccccc2)c2ccccc2)cs1", "note": "(centres unmarked) [Entry 222, N-(1,2-diphenylethyl)-2-({[({4-[(trifluoromethyl)oxy]phenyl}oxy)acetyl]amino}methyl)-1,3-thiazole-4-carboxamide]", "values": [{"measurement": "pIC50", "result": "5.70 to 6.30"}]}
{"compound": "O=C(COc1ccc(OC(F)(F)F)cc1)NCc1nc(C(=O)N2CCN(c3ccccn3)CC2)cs1", "note": "[Entry 279, N-({4-[(4-pyridin-2-ylpiperazin-1-yl)carbonyl]-1,3-thiazol-2-yl}methyl)-2-({4-[(trifluoromethyl)oxy]phenyl}oxy)acetamide]", "values": [{"measurement": "pIC50", "result": "5.70 to 6.30"}]}
{"compound": "CCCCCCN(CCC#N)C(=O)c1csc(CNC(=O)COc2ccc(OC(F)(F)F)cc2)n1", "note": "[Entry 238, N-(2-cyanoethyl)-N-hexyl-2-({[({4-[(trifluoromethyl)oxy]phenyl}oxy)acetyl]amino}methyl)-1,3-thiazole-4-carboxamide]", "values": [{"measurement": "pIC50", "result": "5.70 to 6.30"}]}
{"compound": "CC(C)CNC(=O)c1csc(CNC(=O)COc2ccc(OC(F)(F)F)cc2)n1", "note": "[Entry 94, N-(2-methylpropyl)-2-({[({4-[(trifluoromethyl)oxy]phenyl}oxy)acetyl]amino}methyl)-1,3-thiazole-4-carboxamide]", "values": [{"measurement": "pIC50", "result": "6.30 to 7.30"}]}
{"compound": "C[C@@H]1[C@@H](NC(=O)c2csc(CNC(=O)COc3ccc(OC(F)(F)F)cc3)n2)C[C@H]2C[C@@H]1C2(C)C", "note": "[Entry 12, 2-({[({4-[(trifluoromethyl)oxy]phenyl}oxy)acetyl]amino}methyl)-N-[(1S,2S,3S,5R)-2,6,6-trimethylbicyclo[3.1.1]hept-3-yl]-1,3-thiazole-4-carboxamide]", "values": [{"measurement": "pIC50", "result": "> 7.30"}]}
{"compound": "O=C(COc1ccc(OC(F)(F)F)cc1)NCc1nc(C(=O)NCc2cccnc2)cs1", "note": "[Entry 241, N-(pyridin-3-ylmethyl)-2-({[({4-[(trifluoromethyl)oxy]phenyl}oxy)acetyl]amino}methyl)-1,3-thiazole-4-carboxamide]", "values": [{"measurement": "pIC50", "result": "5.70 to 6.30"}]}
{"compound": "O=C(COc1ccc(OC(F)(F)F)cc1)NCc1nc(C(=O)NCC(c2ccccc2)c2ccccc2)co1", "note": "[Entry 226, N-(2,2-diphenylethyl)-2-({[({4-[(trifluoromethyl)oxy]phenyl}oxy)acetyl]amino}methyl)-1,3-oxazole-4-carboxamide]", "values": [{"measurement": "pIC50", "result": "5.70 to 6.30"}]}
{"compound": "O=C(COc1ccc(OC(F)(F)F)cc1)NCc1nc(C(=O)NCc2ccc(F)cc2)co1", "note": "[Entry 292, N-[(4-fluorophenyl)methyl]-2-({[({4-[(trifluoromethyl)oxy]phenyl}oxy)acetyl]amino}methyl)-1,3-oxazole-4-carboxamide]", "values": [{"measurement": "pIC50", "result": "5.70 to 6.30"}]}
{"compound": "NS(=O)(=O)c1ccc(CCNC(=O)c2csc(CNC(=O)COc3ccc(OC(F)(F)F)cc3)n2)cc1", "note": "[Entry 13, N-{2-[4-(aminosulfonyl)phenyl]ethyl}-2-({[({4-[(trifluoromethyl)oxy]phenyl}oxy)acetyl]amino}methyl)-1,3-thiazole-4-carboxamide]", "values": [{"measurement": "pIC50", "result": "> 7.30"}]}
{"compound": "O=C(COc1ccc(OC(F)(F)F)cc1)NCc1nc(C(=O)NCc2ccccc2OC(F)F)cs1", "note": "[Entry 34, N-({2-[(difluoromethyl)oxy]phenyl}methyl)-2-({[({4-[(trifluoromethyl)oxy]phenyl}oxy)acetyl]amino}methyl)-1,3-thiazole-4-carboxamide]", "values": [{"measurement": "pIC50", "result": "6.30 to 7.30"}]}
{"compound": "Cc1cc(Cl)ccc1CNC(=O)c1csc(CNC(=O)COc2ccc(OC(F)(F)F)cc2)n1", "note": "[Entry 150, N-[(4-chloro-2-methylphenyl)methyl]-2-({[({4-[(trifluoromethyl)oxy]phenyl}oxy)acetyl]amino}methyl)-1,3-thiazole-4-carboxamide]", "values": [{"measurement": "pIC50", "result": "6.30 to 7.30"}]}
{"compound": "COc1ccccc1CNC(=O)c1csc(CNC(=O)COc2ccc(OC(F)(F)F)cc2)n1", "note": "[Entry 17, N-{[2-(methyloxy)phenyl]methyl}-2-({[({4-[(trifluoromethyl)oxy]phenyl}oxy)acetyl]amino}methyl)-1,3-thiazole-4-carboxamide]", "values": [{"measurement": "pIC50", "result": "> 7.30"}]}
{"compound": "COc1cccc(CCNC(=O)c2coc(CNC(=O)COc3ccc(OC(F)(F)F)cc3)n2)c1", "note": "[Entry 234, N-{2-[3-(methyloxy)phenyl]ethyl}-2-({[({4-[(trifluoromethyl)oxy]phenyl}oxy)acetyl]amino}methyl)-1,3-oxazole-4-carboxamide]", "values": [{"measurement": "pIC50", "result": "5.70 to 6.30"}]}
{"compound": "COCCCNC(=O)c1csc(CNC(=O)COc2ccc(OC(F)(F)F)cc2)n1", "note": "[Entry 269, N-[3-(methyloxy)propyl]-2-({[({4-[(trifluoromethyl)oxy]phenyl}oxy)acetyl]amino}methyl)-1,3-thiazole-4-carboxamide]", "values": [{"measurement": "pIC50", "result": "5.70 to 6.30"}]}
{"compound": "COc1ccc(OC)c(CCNC(=O)c2csc(CNC(=O)COc3ccc(OC(F)(F)F)cc3)n2)c1", "note": "[Entry 137, N-{2-[2,5-bis(methyloxy)phenyl]ethyl}-2-({[({4-[(trifluoromethyl)oxy]phenyl}oxy)acetyl]amino}methyl)-1,3-thiazole-4-carboxamide]", "values": [{"measurement": "pIC50", "result": "6.30 to 7.30"}]}
{"compound": "O=C(NCCc1cccc(Cl)c1)c1csc(CNCc2ccc(OC(F)(F)F)cc2)n1", "note": "[Entry 309, N-[2-(3-chlorophenyl)ethyl]-2-{[({4-[(trifluoromethyl)oxy]phenyl}methyl)amino]methyl}-1,3-thiazole-4-carboxamide]", "values": [{"measurement": "pIC50", "result": "< 5.70"}]}
{"compound": "CC(C)(C)OC(=O)NC1CCN(C(=O)c2csc(CNC(=O)COc3ccc(OC(F)(F)F)cc3)n2)C1", "note": "(centres unmarked) [Entry 278, 1,1-dimethylethyl (1-{[2-({[({4-[(trifluoromethyl)oxy]phenyl}oxy)acetyl]amino}methyl)-1,3-thiazol-4-yl]carbonyl}pyrrolidin-3-yl)carbamate]", "values": [{"measurement": "pIC50", "result": "5.70 to 6.30"}]}
{"compound": "Cc1ccc(NC(=O)NCc2nc(C(=O)NCCc3cccc(Cl)c3)cs2)cc1", "note": "[Entry 168, N-[2-(3-chlorophenyl)ethyl]-2-[({[(4-methylphenyl)amino]carbonyl}amino)methyl]-1,3-thiazole-4-carboxamide]", "values": [{"measurement": "pIC50", "result": "6.30 to 7.30"}]}
{"compound": "COc1cccc(OC)c1CNC(=O)c1csc(CNC(=O)COc2ccc(OC(F)(F)F)cc2)n1", "note": "[Entry 106, N-{[2,6-bis(methyloxy)phenyl]methyl}-2-({[({4-[(trifluoromethyl)oxy]phenyl}oxy)acetyl]amino}methyl)-1,3-thiazole-4-carboxamide]", "values": [{"measurement": "pIC50", "result": "6.30 to 7.30"}]}
{"compound": "O=C(COc1ccc(OC(F)(F)F)cc1)NCc1nc(C(=O)NCc2ccc(Cl)c(C(F)(F)F)c2)cs1", "note": "[Entry 73, N-{[4-chloro-3-(trifluoromethyl)phenyl]methyl}-2-({[({4-[(trifluoromethyl)oxy]phenyl}oxy)acetyl]amino}methyl)-1,3-thiazole-4-carboxamide]", "values": [{"measurement": "pIC50", "result": "6.30 to 7.30"}]}
{"compound": "O=C(COc1ccc(OC(F)(F)F)cc1)NCc1nc(C(=O)NCCN2CCCCC2)cs1", "note": "[Entry 290, N-(2-piperidin-1-ylethyl)-2-({[({4-[(trifluoromethyl)oxy]phenyl}oxy)acetyl]amino}methyl)-1,3-thiazole-4-carboxamide]", "values": [{"measurement": "pIC50", "result": "5.70 to 6.30"}]}
